Experimental data reported in US9546153B2, “Bicyclic heterocycle substituted pyridyl compounds useful as kinase modulators” (BRISTOL-MYERS SQUIBB COMPANY, priority 2012, dated 2017).
Where two headings read alike, the source gives them in different places.

Tests used:
IRAK4 = IRAK4 (Homo sapiens (Human), UniProt Q9NWZ3); test: IRAK4 Inhibition Assay; type: biochemical; conditions: ATP 500 μM; IRAK4 0.6 nM; 60 min at room temperature
Experimental: The assays were performed in U-bottom 384-well plates. […] The reaction was initiated by the combination of IRAK4 with substrates and test compounds. The reaction was incubated at room temperature for 60 min. and terminated by adding 45 μL of 35 mM EDTA to each sample. The reaction mixture was analyzed on the Caliper LABCHIP® 3000 (Caliper, Hopkinton, Mass.) by electrophoretic separation of the fluorescent substrate and phosphorylated product.

[1] = test system: TLR2 induced IL-6 in peripheral blood mononuclear cells (PBMCs); test: PBMC TLR2 Induced IL-6 Assay; type: cell-based, human; conditions: human PBMCs, 10 μg/ml lipoteichoic acid for 5 hours, IL-6 by ELISA; for IC50: value without asterisk, read-out: Cell IC50; for EC50: EC50 determinations are indicated with an asterisk, read-out: Cell EC50 (asterisk)
Outline: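 IL-6 ELISA of supernatants after a 5 h challenge with the TLR2 agonist lipoteichoic acid (10 μg/ml). Before stimulation, human PBMCs (250000 cells/well; RPMI, 10% heat-inactivated FCS) received compound for 30 min at 37° C. Values given as IC50 or EC50.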

Sequence of IRAK4 (Q9NWZ3 whole entry, species assumed): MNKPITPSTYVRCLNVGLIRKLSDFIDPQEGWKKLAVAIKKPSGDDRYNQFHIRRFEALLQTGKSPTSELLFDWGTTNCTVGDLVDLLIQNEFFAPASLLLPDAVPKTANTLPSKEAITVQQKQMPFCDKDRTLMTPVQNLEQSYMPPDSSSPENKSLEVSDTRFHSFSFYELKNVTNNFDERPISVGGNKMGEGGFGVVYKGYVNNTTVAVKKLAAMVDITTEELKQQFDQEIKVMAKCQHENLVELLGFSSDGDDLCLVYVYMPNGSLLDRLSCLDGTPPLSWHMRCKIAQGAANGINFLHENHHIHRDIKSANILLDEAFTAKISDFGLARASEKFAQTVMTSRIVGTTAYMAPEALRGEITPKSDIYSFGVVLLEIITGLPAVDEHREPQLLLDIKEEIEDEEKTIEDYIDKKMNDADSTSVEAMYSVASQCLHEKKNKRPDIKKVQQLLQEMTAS

| SMILES | IC50 (IRAK4) [nM] | IC50 ([1]; Homo sapiens, PBMC, 5 h) [nM] | EC50 ([1]; Homo sapiens, PBMC, 5 h) [nM] | IC50 [1] [nM] |
| --- | --- | --- | --- | --- |
| CC(C)(O)[C@H](F)CNC(=O)c1cnc(Nc2ccn3nccc3n2)cc1Nc1ccc(S(C)(=O)=O)cc1 [Example 383] | 6.3 | 194 |  |  |
| CC(C)Nc1cc(Nc2ccc3ncsc3c2)ncc1C(=O)N[C@H]1CC[C@H](NC(=O)c2ccncc2)CC1 [Example 207] | 1.7 | 158 |  |  |
| CC(C)Nc1cc(Nc2ccn3ncc(Cl)c3c2)ncc1C(=O)NC[C@@H](F)C(C)(C)O [Example 295] | 4.8 | 446 |  |  |
| CCNc1cc(Nc2nc3ccnn3cc2F)ncc1C(=O)NC1CCC(C(C)(C)O)CC1 (stereo not drawn) [Example 492] | 12.1 |  | 454 |  |
| CC(C)C(O)[C@H](F)CNC(=O)c1cnc(Nc2ccc3ncsc3c2)cc1NC1CC1 (stereo partly drawn) [Example 26] | 7.3 |  |  | 121 |
| CC(=O)NCCNC(=O)c1cnc(Nc2ccc3ncsc3c2)cc1NC1CCCC1 [Example 152] | 7.5 | 596 |  |  |
| CC(C)(O)[C@H](F)CNC(=O)c1cnc(Nc2ccn3ncc(F)c3n2)cc1NC1CC1 [Example 251] | 3.2 | 369 |  |  |
| CC(C)Nc1cc(Nc2ccn3ncc(C#N)c3n2)ncc1C(=O)NC[C@@H](F)C(C)(C)O [Example 261] | 3.6 | 126 |  |  |
| CCNC(=O)c1cnc(Nc2ccc3ncsc3c2)cc1N[C@@H](c1ccccc1)[C@H](O)CO [Example 144] | 7.4 | 199 |  |  |
| CC(C)(O)[C@H](F)CNC(=O)c1cnc(Nc2ccc3ncsc3c2)cc1NCCc1ccccc1 [Example 165] | 9 | 386 |  |  |
| CC(C)Nc1cc(Nc2ccc3ncsc3c2)ncc1C(=O)NC12CCC(O)(CC1)C2 [Example 176] | 10.3 | 489 |  |  |
| CC(C)Nc1cc(Nc2ccc3ncsc3c2)ncc1C(=O)N[C@H]1CC[C@H]([N+](=O)[O-])CC1 [Example 523, 6-(benzo[d]thiazol-6-ylamino)-4-(isopropylamino)-N-((trans)-4-nitrocyclohexyl)nicotinamide] | 5.4 |  | 365 |  |
| CC(C)Nc1cc(Nc2ccc3ncsc3c2)ncc1C(=O)NC1CCc2[nH]ncc2C1 (stereo not drawn) [Example 494] | 8.5 |  | 209 |  |
| CC(CO)Nc1cc(Nc2nc3ccnn3cc2F)ncc1C(=O)NC[C@@H](F)C(C)(C)O (stereo partly drawn) [Example 423] | 6.5 | 461 |  |  |
| CC(C)Nc1cc(Nc2ccc3ncsc3c2)ncc1C(=O)N[C@H]1CC[C@H](C(=O)NCC(C)(C)O)CC1 [Example 196] | 3.5 | 325 |  |  |
| CNC(=O)c1ccc(CCNC(=O)c2cnc(Nc3ccc4ncsc4c3)cc2NC(C)C)cc1 [Example 12] | 5.6 | 311 |  |  |
| CC(C)(O)CCNC(=O)c1cnc(Nc2ccc3ncsc3c2)cc1NC1CC1 [Example 9] | 10 | 289 |  |  |
| Cc1cc2nc(Nc3cc(NC4CCC(F)C4)c(C(=O)NC[C@@H](F)C(C)(C)O)cn3)ccn2n1 (stereo partly drawn) [Example 267] | 7.4 | 468 |  |  |
| CNC(=O)c1cnc(Nc2ccc3ncsc3c2)cc1NC1C2CC3CC1CC(O)(C3)C2 (single isomer, unassigned) [Example 146] | 53.9 | 550 |  |  |
| CN1CCCC1CCNC(=O)c1cnc(Nc2ccc3ncsc3c2)cc1NC1CCCC1 (stereo not drawn) [Example 149] | 3.8 | 386 |  |  |
| CC(C)(F)CNc1cc(Nc2cc3scnc3cc2F)ncc1C(=O)NC[C@@H](F)C(C)(C)O [Example 454] | 2.8 | 38 |  |  |
| CC(C)(O)[C@H](F)CNC(=O)c1cnc(Nc2ccn3nccc3n2)cc1NC1CCOCC1 [Example 237] | 3.1 | 222 |  |  |
| CNC(=O)[C@H]1CC[C@H](NC(=O)c2cnc(Nc3ccc4ncsc4c3)cc2NC2CCC2)CC1 [Example 504] | 4.7 | 496 |  |  |

Now from value to compound, other results behind:

| IC50 (IRAK4) [nM] | SMILES | IC50 ([1]; Homo sapiens, PBMC, 5 h) [nM] | EC50 ([1]; Homo sapiens, PBMC, 5 h) [nM] | IC50 [1] [nM] |
| --- | --- | --- | --- | --- |
| 1.7 | CC(F)CNc1cc(Nc2ccc3ncsc3c2)ncc1C(=O)NC[C@@H](F)C(C)(C)O (stereo partly drawn) [Example 450] | 217 |  |  |
| 2.4 | CC(C)(O)[C@H](F)CNC(=O)c1cnc(Nc2ccc3ncc(C#N)cc3n2)cc1NC1CCC(F)C1 (stereo partly drawn) [Example 411] |  |  | 92 |
| 3.6 | CC(C)(O)[C@H](F)CNC(=O)c1cnc(Nc2nc3scnc3cc2F)cc1NC1CCOCC1F (stereo partly drawn) [Example 470] |  |  | 635 |
| 5.3 | CC(CO)Nc1cc(Nc2ccc3ncsc3c2)ncc1C(=O)NC[C@@H](F)C(C)(C)O (stereo partly drawn) [Example 39] | 503 |  |  |
| 54.8 | CC(C)(O)[C@H](F)CNC(=O)c1cnc(Nc2ccc3ncsc3c2)cc1NC(C1CC1)C1CC1 [Example 101] | 570 |  |  |
| 3.5 | CC(C)(O)[C@H](F)CNC(=O)c1cnc(Nc2ccc3ncsc3c2)cc1NC1CCSCC1 [Example 384] | 180 |  |  |
| 3.4 | CC(C)(O)[C@H](F)CNC(=O)c1cnc(Nc2ccc3ncsc3c2)cc1NC1CCOCC1F (stereo partly drawn) [Example 231] |  |  | 88 |
| 3.6 | CC(C)CNc1cc(Nc2ccc3ncsc3c2)ncc1C(=O)NC[C@@H](F)C(C)(C)O [Example 162] | 48 |  |  |
| 6.7 | CC(C)(O)[C@H](F)CNC(=O)c1cnc(Nc2ccc3nccnc3c2)cc1NC1CCCC1F (stereo partly drawn) [Example 348] | 562 |  |  |
| 5.5 | CC(C)(O)[C@H](F)CNC(=O)c1cnc(Nc2ccn3nccc3n2)cc1NC1CCCC1F (stereo partly drawn) [Example 246] |  |  | 262 |
| 8.2 | CC(C)(O)[C@H](F)CNC(=O)c1cnc(Nc2ccc3nsnc3c2)cc1NC1CCCC1 [Example 36] | 893 |  |  |
| 3.1 | CC(C)(O)[C@H](F)CNC(=O)c1cnc(Nc2ccn3nccc3n2)cc1NC1CCC(F)C1 (stereo partly drawn) [Example 248] |  |  | 176 |
| 7.9 | CC(C)(O)[C@H](F)CNC(=O)c1cnc(Nc2ccn3nccc3c2)cc1NC1CCOCC1F (stereo partly drawn) [Example 298] | 596 |  |  |
| 4.2 | CC(C)(O)[C@H](F)CNC(=O)c1cnc(Nc2ccn3nccc3n2)cc1NC1CC(F)C1 (stereo partly drawn) [Example 263] | 190 |  |  |
| 2.7 | CC(C)(O)[C@H](F)CNC(=O)c1cnc(Nc2ccc3nccn3n2)cc1NC1CCC(F)C1 (stereo partly drawn) [Example 280] |  |  | 127 |
| 3.2 | CC(C)(O)C(F)CNC(=O)c1cnc(Nc2ccc3ncsc3c2)cc1N[C@H]1CCCC(F)C1 (stereo partly drawn) [Example 329, 6-(benzo[d]thiazol-6-ylamino)-N-(2-fluoro-3-hydroxy-3-methylbutyl)-4-(3-fluorocyclohexylamino)nicotinamide] | 113 |  |  |
